Assay results reported in patent publication US12540112B2, “Crystal form I of curcumin derivative, preparation method therefor and application thereof” (WENZHOU MEDICAL UNIVERSITY, priority 2019, dated 2026).
“And” between values parts separate entries of the source, which are not always exact repeats. Equal values may be shown once. “Also recorded” adds a separate entry of the source.

Tests used:
Format in all cases: physicochemical
[1] = Fluidity test: angle of repose measurement
Description: (1) Angle of Repose Measurement
An iron stand configured to measure the angle of repose is placed in a horizontal position, a funnel is fixed on the iron stand, and a plastic receiving container is placed directly under the funnel. The crystal form I is added to the funnel to make the material flow down slowly from the funnel to form a cone shape. The height of the bottom of the funnel and the top of the flowed-down material is maintained at a height of about 2-4 cm. The measurement is repeated 5 times to calculate the average value.

[2] = Fluidity test: bulk density and tap density determination
Description: (2) Bulk Density and Tap Density Determination
The crystal form I is added to a measuring cylinder, and the weight and volume of the material added are calculated. A densitometer is used to tap and record the volume of the material after tapping.

[3] = Moisture absorption determination according to the Pharmacopoeia
Description: In this embodiment, the moisture absorption of crystal form I is investigated according to the Pharmacopoeia, and the details are as follows: • (1) 2 dry glass weighing bottles with stoppers (outer diameter of 50 mm, height of 30 mm) are taken and placed in a desiccator where a saturated solution of ammonium chloride is placed in a lower part. The weighing bottles are placed with open lips, the lid of the desiccator is closed, and the desiccator is placed in a constant temperature room at 25° C. and left overnight. • (2) after left overnight, the weighing bottles are taken out and accurately weighted, results of which are m1 1 and m1 2 respectively. • (3) an appropriate amount of the API sample is taken and laid flat in a weighed weighing bottle (the thickness of the sample is about 1 mm), and accurately weighted, results of which are m2 1 and m2 2 respectively. • (4) the weighing bottles are placed with open lips and placed with the bottle caps in the desiccator with the saturated solution of ammonium chloride in the lower part, the lid of the desiccator is closed, and the desiccator is placed in a thermostat at 25° C. for 24 hours. • (5) after leaving for 24 hours, the weighing bottles are capped and accurately weighted, results of which are m3 1 and m3 2 respectively. • (6) the calculation formula for moisture absorption weight gain is as follows: Weight gain percentage=100%×(m3−m2)/(m2−m1)

[4] = Two-week solid-state stability determination (XRPD and HPLC); conditions: 2 weeks; for Purity after storage: HPLC, initial purity 99.72%; for Stability of crystalline shape: XRPD
Excerpt: […] Samples are taken after 2 weeks to test the stability of the samples by XRPD and HPLC.

SMILES: O=C1/C(=C/c2ccccc2C(F)(F)F)CCC/C1=C\c1ccccc1C(F)(F)F [crystal form I]
- angle of repose, Average value ([1]; average of 5 repeated measurements): 41.80 °
- fluidity ([1]; judgement in words): good fluidity; also recorded: acceptable
- angle of repose ([1]; single measurements 1 to 5, funnel method): 41.30° and 40.86° and 42.93° and 41.87° and 42.02°
- Carr index ([2]; (tap density − bulk density)/tap density × 100): 21.60
- ρ (bulk density) ([2]; M 29.85 g, V 44.0 mL): 0.678 g/mL
- ρ-tapped (tap density) ([2]; M 29.85 g, V-tapped 34.5 mL): 0.865 g/mL
- fluidity (from Carr index) ([2]; judgement in words): good fluidity
- Weight gain percentage, Average value ([3]; 25° C., saturated ammonium chloride solution desiccator, 24 hours, average of 2): 0.16%
- Weight gain percentage (moisture absorption) ([3]; 25° C., saturated ammonium chloride solution desiccator, 24 hours, listed as C66-HC-006-13-06): 0.17% and 0.15%
- moisture absorption ([3]; judgement in words): no or almost no moisture absorption
- Purity after storage ([4]; 25° C./60% RH/60% RH): 99.70%
- Stability of crystalline shape ([4]; 25° C./60% RH/60% RH): YES
- Purity after storage ([4]; 25° C./92.5% RH): 99.72%
- Stability of crystalline shape ([4]; 25° C./92.5% RH): YES
- Purity after storage ([4]; 40° C./75% RH): 99.70%
- Stability of crystalline shape ([4]; 40° C./75% RH): YES
- Purity after storage ([4]; 60° C./75% RH): 99.68%
- Stability of crystalline shape ([4]; 60° C./75% RH): YES
- change of purity on storage ([4]; all storage conditions): does not change significantly
- stability of crystal form ([4]; all storage conditions): remains stable
